Measured values reported in publication PMC6362038, “Secondary structures and cell-penetrating abilities of arginine-rich peptide foldamers” (Scientific Reports, 2019).
Numbered stars: 1 amine (or outer) side, 2 acyl side, 3 side chain; on linkers, the order of the positions; unused ones are H or OH. Square brackets hold non-standard residues; d marks the D form. Peptide text beside a SMILES is read from it. * marks the point of attachment. 5FAM = O=C1OC2(c3ccc(O)cc3Oc3cc(O)ccc32)c2ccc(C(=O)*)cc21; X1 = CO[C@H]1CC(N[*:1])(C(=O)[*:2])C[C@@H]1OC; αMeL = CC(C)C[C@](C)(N)C(=O)O; Ac5c = NC1(C(=O)O)CCCC1

Legend:
[1] = system: HeLa cells; assay: Cellular uptake of CF-labeled peptides into HeLa cells (flow cytometry); format: cell-based; conditions: for cellular uptake, course over incubation time: 1 µM peptide, 2, 6 and 24 h, heparin wash, trypsinized, flow cytometry fluorescence, mean of n = 3; for cellular uptake, course over incubation time / cellular uptake compared with Arg peptide: DMEM 10% FBS; for cellular uptake, rank among the peptides containing dAAs / cellular uptake compared with Arg peptide: 1 µM peptide, flow cytometry, n = 3; for cellular uptake, rank among the peptides containing dAAs: 2-24 h; for cellular uptake compared with Arg peptide: 24 h
Procedure: (§1) Cellular uptake of peptides was assessed against HeLa (Fig. 5a) and CHO-K1 cells (Fig. 5b) at a concentration of 1 µM and various incubation times (2, 6, and 24 h). […] Not only stabilities against protease digestion but also other factors might contribute to prolongation of the cell-penetrating ability of peptides. […] The number of Arg residues in Arg-rich peptides is very important for their cell-penetrating ability, and six Arg are not enough. […] Substitution of Arg in Arg peptide with Ac5c, Ac5c^dOM, or (αMe)Leu positively affected its cell-penetrating ability compared with Aib. In comparison, among the peptides containing dAAs, (αMe)Leu peptide was the best for HeLa cell, Ac5c peptide was the best for CHO-K1 cell, and Ac5c^dOM peptide was the worst for both cell types (Fig. 5). Although the best peptides were different depending on cell type, the worst peptide was same for both cell types. […] Taken together, a stable helical structure by introducing dAAs into Arg-rich peptide enhanced their cell-penetrating abilities.
(§2) HeLa or CHO-K1 cells were seeded on 24-well culture plates (100,000 cells/well) and incubated in 400 µL of DMEM containing 10% FBS. The medium was then replaced with fresh medium, and a peptide solution was added to each well at a concentration of 1 µM. After each incubation time, the medium was removed and cells were washed with ice-cold PBS with heparin (20 units/mL) and trypsinized. After the addition of medium containing 10% FBS, fluorescence intensity was detected and acquired using an On-chip Flow (On-chip Biotechnologies Co., Ltd, Tokyo, Japan). The results are presented as a mean and standard deviation obtained from 3 samples.

[2] = Circular dichroism, R value of secondary structure; format: physicochemical; conditions: CD, peptide 24 µM
Procedure: The conformations of peptides were analyzed by circular dichroism (CD) in pH 7.3 4-(2-hydroxyethyl)-1-piperazineethanesulfonic acid (HEPES) buffer (Fig. 3a), 40% 2,2,2-trifluoroethanol (TFE)/pH 7.3 HEPES buffer (Fig. 3b), and 75% TFE/pH 7.3 HEPES buffer (Fig. 3c). Negative maxima at 205–209 nm (π → π*) and 222–225 nm (n → π*) were diagnostic of a right-handed (P) helical structure[31]–[33]. The ratio of R (θπ → π*/θn → π*) has been used as a parameter to distinguish an α-helical structure from a 3_10-helical structure (i.e., R ≈ 1: α-helix; R < 0.4: 3_10-helix) (Table S1)[34],[35]. Helical content (helicity) of peptides was estimated from the intensity of θn → π* values. A negative maximum at 195–200 nm (π → π*) and a weak positive maximum at 217 nm (n → π*) were diagnostic of a random coil structure. […] By adding TFE to HEPES buffer, (αMe)Leu peptide formed a complete right-handed (P) helical structure in a mixture of α- and 3_10-helices (R = 0.57 and 0.56 in Figs 3b and […], respectively). The dominant structures of Ac5c and Leu peptides changed by increased the rate of TFE to eventually be α-/3_10-helices (R = 0.52) and 3_10-helix (R = 0.30), respectively (Fig. 3c). […] Cbz-[L-Leu-L-Leu-(S,S)-Ac5c^dOM]3-OMe was reported to form a right-handed (P) helical structure in 50% TFE/H2O[37]. L-Leu might contribute to stabilization of the peptide helical secondary structure as well as (S,S)-Ac5c^dOM. Destabilization of the peptide helical secondary structure by L-Arg might be stronger than stabilization of it by (S,S)-Ac5c^dOM. Taken together with the results of CD spectra (Fig. 3), in which helicity of peptides was estimated from the intensity of θn → π* values, stability in the helicity of the peptides in the current study was as follows: (αMe)Leupeptide>Ac5cpeptide≈Leupeptide>Ac5c^dOMpeptide≈Argpeptide.
Figure 3 CD spectra of peptides in (a) HEPES buffer, (b) 40% TFE/HEPES buffer, and (c) 75% TFE/HEPES buffer. Peptide concentration: 24 µM.
Optical rotation [α]^rtD was measured using a Jasco DIP-370 polarimeter (JASCO, Tokyo, Japan) using a 0.5 dm cell. Infrared (IR) spectra were recorded using a Shimadzu IR Affinity-1 spectrometer (Shimadzu Corporation, Kyoto, Japan) for conventional measurement (KBr). CD spectra were recorded using a Jasco J-720W spectropolarimeter (JASCO) with a 1.0 mm path length cell. ^1H NMR (400 MHz) and ^13C NMR (100 MHz) spectra were determined using a JEOL AL 400 spectrometer (JEOL Ltd, Tokyo, Japan). Fast atom bombardment (FAB)-MS was measured using a JEOL JMS-700N (JEOL). MALDI-TOF-MS spectra were recorded using a Bruker Ultrax spectrometer (Bruker Daltonics, Fermont, CA). Piperidine was purchased from Tokyo Chemical Industry Co., Ltd. (Tokyo, Japan). Fmoc-L-Arg(Pbf)-OH, Fmoc-Gly-OH, Fmoc-L-Leu-OH, and CLEAR-Amide resin were purchased from the Peptide Institute., Inc. (Osaka, Japan). Fmoc-(S)-(αMe)Leu-OH was obtained from Nagase & Co., Ltd. (Kyoto, Japan). Fmoc-Ac5c-OH was purchased from Watanabe Chemical Industries, Ltd. (Hiroshima, Japan). HATU, HBTU, HOAt, and HOBt were from AAPPTec (Louisville, KY). COMU was from Novabiochem (Tokyo, Japan). CF and Dulbecco’s modified Eagle’s medium (DMEM) were obtained from Sigma-Aldrich Co. (St. Louis, MO). diisopropylethylamine (DIPEA) and heparin were purchased from Wako Pure Chemicals Co., Inc. (Osaka, Japan). Diethyl ether was from Kanto Chemical Co., Inc. (Tokyo, Japan). Trifluoroacetic acid (TFA) was obtained from Nacalai Tesque, Co., Inc. (Kyoto, Japan). Hoechst 33342 and a Cell counting kit-8 were purchased from Dojindo Laboratories (Kumamoto, Japan). LysoTracker Red was from Molecular Probes (Eugene, OR).
Table S1. R values (qπ → π*/qn → π*) of synthetic peptides.
R value (qπ → π*/qn → π* )
HEPES 40% TFE/HEPES 75% TFE/HEPES

[3] = system: CHO-K1 cells; assay: Cellular uptake of CF-labeled peptides into CHO-K1 cells (flow cytometry); format: cell-based; conditions: n = 3; for cellular uptake, course over incubation time: CHO-K1, 1 µM peptide, 2, 6 and 24 h, compared with peptides of only natural α-amino acids; for cellular uptake compared with Arg peptide / cellular uptake, rank among the peptides containing dAAs: CHO-K1, 1 µM peptide; for cellular uptake compared with Arg peptide: DMEM 10% FBS; for cellular uptake, rank among the peptides containing dAAs: 2-24 h
Procedure: as §1, §2

[4] = pH 7.3 HEPES buffer, R ≈ 1 α-helix, R < 0.4 3_10-helix

Row | SMILES | cellular uptake, course over incubation time [1] | cellular uptake, rank among the peptides containing dAAs [1] | cellular uptake compared with Arg peptide [1] | R value (θπ → π*/θn → π*) ([2]; 40% TFE/pH 7.3 HEPES buffer) | R value (θπ → π*/θn → π*) ([2]; 75% TFE/pH 7.3 HEPES buffer) | R value (θπ → π*/θn → π*) [2, 4] | cellular uptake, course over incubation time [3] | cellular uptake compared with Arg peptide ([3]; 6 h) | cellular uptake compared with Arg peptide ([3]; 24 h) | cellular uptake, rank among the peptides containing dAAs [3]
1 | CC(C)C[C@](C)(NC(=O)[C@H](CCCNC(=N)N)NC(=O)[C@H](CCCNC(=N)N)NC(=O)[C@](C)(CC(C)C)NC(=O)[C@H](CCCNC(=N)N)NC(=O)[C@H](CCCNC(=N)N)NC(=O)[C@](C)(CC(C)C)NC(=O)[C@H](CCCNC(=N)N)NC(=O)[C@H](CCCNC(=N)N)NC(=O)CNC(=O)c1ccc2c(c1)C(=O)OC21c2ccc(O)cc2Oc2cc(O)ccc21)C(N)=O [(αMe)Leu peptide] (5FAM-GRR[αMeL]RR[αMeL]RR[αMeL]-NH2) | increased cellular uptake from 2 to 6 h incubations and this was maintained after 24 h incubation | the best | higher than that of Arg peptide | 0.57 | 0.56 | 0.45 | prolonged cell-penetrating ability | higher than that of Arg peptide | higher than that of Arg peptide | –
2 | N=C(N)NCCC[C@H](NC(=O)CNC(=O)c1ccc2c(c1)C(=O)OC21c2ccc(O)cc2Oc2cc(O)ccc21)C(=O)N[C@@H](CCCNC(=N)N)C(=O)NC1(C(=O)N[C@@H](CCCNC(=N)N)C(=O)N[C@@H](CCCNC(=N)N)C(=O)NC2(C(=O)N[C@@H](CCCNC(=N)N)C(=O)N[C@@H](CCCNC(=N)N)C(=O)NC3(C(N)=O)CCCC3)CCCC2)CCCC1 [Ac5c peptide] (5FAM-GRR[Ac5c]RR[Ac5c]RR[Ac5c]-NH2) | increased cellular uptake from 2 to 6 h incubations and this was maintained after 24 h incubation | – | higher than that of Arg peptide | 0.61 | 0.52 | No significant maxima | prolonged cell-penetrating ability | higher than that of Arg peptide | higher than that of Arg peptide | the best
3 | CO[C@H]1CC(NC(=O)[C@H](CCCNC(=N)N)NC(=O)[C@H](CCCNC(=N)N)NC(=O)C2(NC(=O)[C@H](CCCNC(=N)N)NC(=O)[C@H](CCCNC(=N)N)NC(=O)C3(NC(=O)[C@H](CCCNC(=N)N)NC(=O)[C@H](CCCNC(=N)N)NC(=O)CNC(=O)c4ccc5c(c4)C(=O)OC54c5ccc(O)cc5Oc5cc(O)ccc54)C[C@H](OC)[C@@H](OC)C3)C[C@H](OC)[C@@H](OC)C2)(C(N)=O)C[C@@H]1OC [Ac5c^dOM peptide] (5FAM-GRR[X1]RR[X1]RR[X1]-NH2) | increased up to 24 h | the worst | higher than that of Arg peptide | No significant maxima | No significant maxima | No significant maxima | prolonged cell-penetrating ability | – | higher than that of Arg peptide | the worst
